Measured values from the Kinase Knowledgebase extract (Sharma et al. 2016).
pIC50: −log10 of the molar value.

molecular target: PIK3CG (human) (UniProt P48736); test: Assessment of PIK3CG Kinase Activity
Sequence (P48736 whole entry, looked up): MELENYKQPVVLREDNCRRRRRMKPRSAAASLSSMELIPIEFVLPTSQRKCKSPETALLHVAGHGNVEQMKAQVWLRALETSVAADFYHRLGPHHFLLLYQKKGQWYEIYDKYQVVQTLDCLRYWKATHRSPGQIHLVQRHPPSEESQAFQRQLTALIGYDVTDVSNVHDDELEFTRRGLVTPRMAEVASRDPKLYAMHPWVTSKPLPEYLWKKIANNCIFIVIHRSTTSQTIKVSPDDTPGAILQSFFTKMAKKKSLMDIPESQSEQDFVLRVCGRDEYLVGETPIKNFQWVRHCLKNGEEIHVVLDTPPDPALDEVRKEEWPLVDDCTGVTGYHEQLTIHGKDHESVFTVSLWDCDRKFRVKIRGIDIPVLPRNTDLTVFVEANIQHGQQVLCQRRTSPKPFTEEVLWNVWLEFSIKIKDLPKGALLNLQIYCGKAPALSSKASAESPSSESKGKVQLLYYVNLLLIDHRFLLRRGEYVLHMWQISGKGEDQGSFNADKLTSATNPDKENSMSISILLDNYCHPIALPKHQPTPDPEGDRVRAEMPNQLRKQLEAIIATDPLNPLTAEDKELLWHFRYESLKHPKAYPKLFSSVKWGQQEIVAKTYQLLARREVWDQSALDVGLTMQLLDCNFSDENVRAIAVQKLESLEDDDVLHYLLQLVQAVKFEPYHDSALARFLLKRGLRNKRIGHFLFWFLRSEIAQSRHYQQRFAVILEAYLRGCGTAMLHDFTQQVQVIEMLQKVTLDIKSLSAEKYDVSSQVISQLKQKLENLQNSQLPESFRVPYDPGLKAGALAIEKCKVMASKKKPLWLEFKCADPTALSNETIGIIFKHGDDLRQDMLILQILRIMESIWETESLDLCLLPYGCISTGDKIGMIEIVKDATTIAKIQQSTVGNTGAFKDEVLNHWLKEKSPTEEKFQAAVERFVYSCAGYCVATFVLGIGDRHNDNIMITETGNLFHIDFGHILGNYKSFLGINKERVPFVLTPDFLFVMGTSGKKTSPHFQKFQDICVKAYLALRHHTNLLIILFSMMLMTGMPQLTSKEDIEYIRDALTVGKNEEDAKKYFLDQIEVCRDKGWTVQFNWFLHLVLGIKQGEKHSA

pIC50, > 6.10:
CC(C)N1CC(=O)N(C)c2cnc(Nc3cc(NC(=O)[C@@H]4CCN(C5CCCC5)C4)cc(S(C)(=O)=O)c3)nc21, CNC(=O)c1cc(Nc2ncc3c(n2)N(C(C)C)CC(=O)N3C)cc(S(C)(=O)=O)c1, CC(C)N1CC(=O)N(C)c2cnc(Nc3cc(NC(=O)N[C@H]4CC[C@@H](N(C)C)CC4)cc(S(C)(=O)=O)c3)nc21, CC(C)N1CC(=O)N(C)c2cnc(Nc3cc(NC(=O)O[C@H]4CCN(C5CCCC5)C4)cc(S(C)(=O)=O)c3)nc21, CC(C)N1CC(=O)N(C)c2cnc(Nc3cc(NC(=O)C[C@@H]4CCN(C5CCCC5)C4)cc(S(C)(=O)=O)c3)nc21, CC(C)N1CC(=O)N(C)c2cnc(Nc3cc(NS(=O)(=O)c4cccnc4)cc(S(C)(=O)=O)c3)nc21, CC(C)N1CC(=O)N(C)c2cnc(Nc3cc(NC(=O)[C@H](C)C4CCCCC4)cc(S(C)(=O)=O)c3)nc21, CC(C)N1CC(=O)N(C)c2cnc(Nc3cc(NC(=O)NCc4cc(C5CC5)[nH]n4)cc(S(C)(=O)=O)c3)nc21, CC(C)N1CC(=O)N(C)c2cnc(Nc3cc(NC(=O)[C@H]4CCNC4)cc(S(C)(=O)=O)c3)nc21, CC(C)N1CC(=O)N(C)c2cnc(Nc3cc(NC(=O)[C@@H]4CCCNC4)cc(S(C)(=O)=O)c3)nc21, CNCCS(=O)(=O)c1cccc(Nc2ncc3c(n2)N(C(C)C)CC(=O)N3C)c1, COc1ccc2[nH]c(CC(=O)Nc3cc(Nc4ncc5c(n4)N(C(C)C)CC(=O)N5C)cc(S(C)(=O)=O)c3)cc2c1, CC(C)N1CC(=O)N(C)c2cnc(Nc3cc(NC(=O)Cc4cccc(F)c4)cc(S(C)(=O)=O)c3)nc21, CC(C)N1CC(=O)N(C)c2cnc(Nc3cc(NC(=O)NC[C@H]4CCCN4c4ccncc4)cc(S(C)(=O)=O)c3)nc21, CC(C)N1CC(=O)N(C)c2cnc(Nc3cc(NC(=O)N[C@@H]4CCNC4)cc(S(C)(=O)=O)c3)nc21, CCN1CCCC1CNC(=O)c1cc(Nc2ncc3c(n2)N(C(C)C)CC(=O)N3C)cc(NS(C)(=O)=O)c1 (stereo not drawn), CC(C)N1CC(=O)N(C)c2cnc(Nc3cc(C(=O)NC4CCN(C)C4)cc(S(C)(=O)=O)c3)nc21 (stereo not drawn), CC(C)N1CC(=O)N(C)c2cnc(Nc3cc(NC(=O)N(C)Cc4ccncc4)cc(S(C)(=O)=O)c3)nc21, CC(C)N1CC(=O)N(C)c2cnc(Nc3cc(N(C)C(=O)Nc4ccccc4)cc(S(C)(=O)=O)c3)nc21, CC(C)N1CC(=O)N(C)c2cnc(Nc3cc(NS(C)(=O)=O)cc(C(=O)NCCN4CCNC4=O)c3)nc21, CC(C)N1CC(=O)N(C)c2cnc(Nc3cc(NC(N)=O)cc(S(C)(=O)=O)c3)nc21, Cc1cc(CC(=O)Nc2cc(Nc3ncc4c(n3)N(C(C)C)CC(=O)N4C)cc(S(C)(=O)=O)c2)on1, CC(C)N1CC(=O)N(C)c2cnc(Nc3cc(NS(=O)(=O)c4ccc(F)cc4)cc(S(N)(=O)=O)c3)nc21, Cc1cccc(CC(=O)Nc2cc(Nc3ncc4c(n3)N(C(C)C)CC(=O)N4C)cc(S(C)(=O)=O)c2)c1, CC(C)N1CC(=O)N(C)c2cnc(Nc3cc(C(=O)NCCc4ccncc4)cc(S(C)(=O)=O)c3)nc21, CC(C)N1CC(=O)N(C)c2cnc(Nc3cc(NC(=O)Cc4cccnc4)cc(S(C)(=O)=O)c3)nc21, CC(C)N1CC(=O)N(C)c2cnc(Nc3cc(NC(=O)N4CCOCC4)cc(S(C)(=O)=O)c3)nc21, CC(C)N1CC(=O)N(C)c2cnc(Nc3cc(NC(=O)O[C@@H]4CCN(C5CCCC5)C4)cc(S(C)(=O)=O)c3)nc21
